The source of these data is US20140128380A1, “METHODS OF MODULATING THE ACTIVITY OF THE MC1 RECEPTOR AND TREATMENT OF CONDITIONS RELATED TO THIS RECEPTOR” (Mimetica Pty Ltd, priority 2009, published 2014).

Broadly, the IC50 is the concentration that inhibits the measured activity by half.

T1 sequence (Q01726 whole entry): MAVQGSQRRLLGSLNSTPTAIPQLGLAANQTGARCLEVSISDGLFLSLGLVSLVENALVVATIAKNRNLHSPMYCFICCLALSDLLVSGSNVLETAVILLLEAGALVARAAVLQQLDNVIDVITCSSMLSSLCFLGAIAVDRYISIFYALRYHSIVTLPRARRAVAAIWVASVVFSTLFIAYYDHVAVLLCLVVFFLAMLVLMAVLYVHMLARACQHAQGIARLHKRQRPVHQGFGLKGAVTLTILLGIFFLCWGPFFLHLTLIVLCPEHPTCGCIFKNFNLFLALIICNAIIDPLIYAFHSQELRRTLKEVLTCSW

The test has as its target T1, human MC1R (hMC1R) (Homo sapiens, UniProt Q01726).
T1 construct: purchased Perkin Elmer ES-195-M400UA
As to the kind of experiment: Human MC1R radioligand binding assay (displacement of 125I-labeled NDP-MSH, Perkin Elmer hMC1R membranes). To be noted: displacement of [125I]NDP-MSH, compounds tested as trifluoroacetate or hydrochloride salts or free base. The protocol:
Assessments of compound binding to human MC1R (hMC1R)) by displacement of an ^125I-labeled NDP-MSH receptor ligand peptide were performed essentially as described in the data sheets produced by Perkin Elmer to accompany their frozen hMC1R membranes (Perkin Elmer catalog number ES-195-M400UA).
[^125I] NDP-MSH: radiolabeled in house and purified by HPLC:
Na ^125I (0.5 mCi, 17.4 Ci/mg) was added to 50 μL sodium phosphate (50 mM, pH 7.4) in an eppendorf tube precoated with IODOGEN. After incubation for 10 mins the phosphate buffer containing the iodine was added to NDP-MSH (10 ul at 1 mg/mL) in a separate eppendorf tube. This was incubated for a further 10 mins. The iodinated NDP-MSH was purified by HPLC on a Zorbax SB 300 column using solvent A: 0.05% TFA and solvent B: 90% acetonitrile 0.045% TFA with a linear gradient, 0-67% B over 60 mins.
Perkin Elmer frozen hMC1 membranes: catalog number ES-195-M400UA, 0.4 mL/vial; 400 microassays/vial, 0.78 mg/mL protein concentration
Vials of frozen membranes were thawed rapidly immediately before use, diluted with binding buffer and vortexed. Resuspended membranes were kept on ice until they were added to the wells of the plate.
Assays were performed in 96 well polypropylene plates. […] This was incubated for 1 hr at 37° C.
A general note: Displacement assays read how much labelled ligand stays bound in the presence of the test substance.
For `O=C(/C=C/c1ccc(Cl)cc1)NC[C@@H]1CCN(CC(c2ccccc2)c2ccccc2)C(=O)[C@H](CCN2CCOCC2)N1` [Compound 159, (E)-3-(4-chlorophenyl)-N-(((3S,5S)-1-(2,2-diphenylethyl)-3-(2-morpholinoethyl)-2-oxo-1,4-diazepan-5-yl)methyl)acrylamide], the IC50 was below 10 µM.
The figure for `NCC[C@@H]1N[C@H](CNC(=O)/C=C/c2ccc(Cl)cc2)CCN(Cc2cc(Cl)cc(Cl)c2)C1=O` [Compound 141, (E)-N-(((3S,5S)-3-(2-aminoethyl)-1-(3,5-dichlorobenzyl)-2-oxo-1,4-diazepan-5-yl)methyl)-3-(4-chlorophenyl)acrylamide] is below 10 µM; for `CCC(CN1CC[C@@H](CNC(=O)/C=C/c2ccc(Cl)cc2)N[C@@H](CCN)C1=O)c1ccccc1` (stereo partly drawn) [Compound 153, (E)-N-(((3S,5S)-3-(2-aminoethyl)-2-oxo-1-(2-phenylbutyl)-1,4-diazepan-5-yl)methyl)-3-(4-chlorophenyl)acrylamide] it is below 10 µM.
As for `Cc1ccc(/C=C/C(=O)NC[C@@H]2CCN(CC(c3ccccc3)c3ccccc3)C(=O)[C@H](CCN)N2)c(C)c1` [Compound 157, (E)-N-(((3S,5S)-3-(2-aminoethyl)-1-(2,2-diphenylethyl)-2-oxo-1,4-diazepan-5-yl)methyl)-3-(2,4-dimethylphenyl)acrylamide], the IC50 is below 10 µM.
As to `CNC(=O)[C@H](Cc1ccc2ccccc2c1)N1CC[C@H](CNC(=O)/C=C/c2ccc(Cl)cc2)N[C@@H](CCCNC(=N)N)C1=O` [Compound 175, (E)-3-(4-chlorophenyl)-N-(((3S,5R)-3-(3-guanidinopropyl)-1-((S)-1-(methylamino)-3-(naphthalen-2-yl)-1-oxopropan-2-yl)-2-oxo-1,4-diazepan-5-yl)methyl)acrylamide], the 50% inhibitory concentration (IC50) was below 10 µM.
The figure for `N=C(N)NCCC[C@@H]1N[C@H](CNC(=O)c2ccc3ccccc3c2)CCN(Cc2cc(Cl)cc(Cl)c2)C1=O` [Compound 100, N-(((3S,5S)-1-(3,5-dichlorobenzyl)-3-(3-guanidinopropyl)-2-oxo-1,4-diazepan-5-yl)methyl)-2-naphthamide] is below 10 µM; for `CC[C@H](CN1CC[C@H](CNC(=O)c2ccc3cc(Cl)ccc3c2)N[C@H](CC(C)(C)N2CCCCC2)C1=O)c1ccccc1` [Compound 172, 6-chloro-N-(((3R,5R)-3-(2-methyl-2-(piperidin-1-yl)propyl)-2-oxo-1-((S)-2-phenylbutyl)-1,4-diazepan-5-yl)methyl)-2-naphthamide] it is below 10 µM.
For the compound `CC1CC(C)CC(CN2CC[C@@H](CNC(=O)c3ccc4ccccc4c3)N[C@@H](CCCNC(=N)N)C2=O)C1` (stereo partly drawn) [Compound 139, N-(((3S,5S)-1-((3,5-dimethylcyclohexyl)methyl)-3-(3-guanidinopropyl)-2-oxo-1,4-diazepan-5-yl)methyl)-2-naphthamide], the half-inhibitory concentration (IC50) is below 10 µM.
`NC[C@@H]1N[C@H](CNC(=O)/C=C/c2ccc(Cl)cc2)CCN(CC(c2ccccc2)c2ccccc2)C1=O` [Compound 133, (E)-N-(((3S,5S)-3-(aminomethyl)-1-(2,2-diphenylethyl)-2-oxo-1,4-diazepan-5-yl)methyl)-3-(4-chlorophenyl)acrylamide]: the IC50 is below 10 µM.
Turning to `O=C(/C=C/c1ccc(F)cc1F)NC[C@@H]1CCN(CC(c2ccccc2)c2ccccc2)C(=O)[C@H](CCN2CCCCC2)N1` [Compound 158, (E)-3-(2,4-difluorophenyl)-N-(((3S,5S)-1-(2,2-diphenylethyl)-2-oxo-3-(2-(piperidin-1-yl)ethyl)-1,4-diazepan-5-yl)methyl)acrylamide], the half-maximal inhibitory concentration (IC50) is below 10 µM.
For the compound `CC[C@H](CN1CC[C@H](CNC(=O)c2ccc3cc(Cl)ccc3c2)N[C@H](CCN2CCCCC2)C1=O)c1ccccc1` [Compound 183, 6-chloro-N-(((3R,5R)-2-oxo-1-((S)-2-phenylbutyl)-3-(2-(piperidin-1-yl)ethyl)-1,4-diazepan-5-yl)methyl)-2-naphthamide], the 50% inhibitory concentration (IC50) is below 10 µM.
For `O=C(/C=C/c1ccc(Cl)cc1)NC[C@@H]1CCN(CC(c2ccccc2)c2ccccc2)C(=O)[C@H](CCCN2CCCCC2)N1` [Compound 132, (E)-3-(4-chlorophenyl)-N-(((3S,5S)-1-(2,2-diphenylethyl)-2-oxo-3-(3-(piperidin-1-yl)propyl)-1,4-diazepan-5-yl)methyl)acrylamide], the IC50 was below 10 µM.
Turning to `O=C(NC[C@@H]1CCN(CC(c2ccccc2)c2ccccc2)C(=O)[C@H](CCN2CCCCC2)N1)c1cc(-c2ccc(Cl)cc2)on1` [Compound 162, 5-(4-chlorophenyl)-N-(((3S,5S)-1-(2,2-diphenylethyl)-2-oxo-3-(2-(piperidin-1-yl)ethyl)-1,4-diazepan-5-yl)methyl)isoxazole-3-carboxamide], the IC50 is below 10 µM.
Then `N=C(N)NCCC[C@@H]1N[C@H](CNC(=O)c2cc3ccccc3[nH]2)CCN(CC(c2ccccc2)c2ccccc2)C1=O` [Compound 113, N-(((3S,5S)-1-(2,2-diphenylethyl)-3-(3-guanidinopropyl)-2-oxo-1,4-diazepan-5-yl)methyl)-1H-indole-2-carboxamide], with below 10 µM.
With `O=C(NC[C@@H]1CCN(Cc2cc(Cl)cc(Cl)c2)C(=O)[C@H](CN2CCCCC2)N1)c1ccc(Cl)c(Cl)c1` [Compound 151, 3,4-dichloro-N-(((3S,5S)-1-(3,5-dichlorobenzyl)-2-oxo-3-(piperidin-1-ylmethyl)-1,4-diazepan-5-yl)methyl)benzamide], the IC50 is below 10 µM.
Take `NCCC[C@@H]1N[C@H](CNC(=O)c2ccc3ccccc3c2)CCN(CC2(c3ccccc3)CCCCC2)C1=O` [Compound 144, N-(((3S,5S)-3-(3-aminopropyl)-2-oxo-1-((1-phenylcyclohexyl)methyl)-1,4-diazepan-5-yl)methyl)-2-naphthamide]: the IC50 is below 10 µM.
Take `N=C(N)NCCC[C@H]1N[C@@H](CNC(=O)c2ccc(-c3ccccc3)cc2)CCN(CC2CCCCC2)C1=O` [Compound 176, N-(((3R,5R)-1-(cyclohexylmethyl)-3-(3-guanidinopropyl)-2-oxo-1,4-diazepan-5-yl)methyl)biphenyl-4-carboxamide]: the half-maximal inhibitory concentration (IC50) is below 10 µM.
Then `N=C(N)NCCC[C@@H]1N[C@H](CNC(=O)c2ccc3ccccc3c2)CCN(CC2c3ccccc3-c3ccccc32)C1=O` [Compound 126, N-(((3S,5S)-1-((9H-fluoren-9-yl)methyl)-3-(3-guanidinopropyl)-2-oxo-1,4-diazepan-5-yl)methyl)-2-naphthamide], with below 10 µM; and `Cc1ccc(/C=C/C(=O)NC[C@@H]2CCN(CC(c3ccccc3)c3ccccc3)C(=O)[C@H](CCCN)N2)cc1` [Compound 120, (E)-N-(((3S,5S)-3-(3-aminopropyl)-1-(2,2-diphenylethyl)-2-oxo-1,4-diazepan-5-yl)methyl)-3-p-tolylacrylamide], with below 10 µM; and `CNC(=O)[C@H](Cc1ccc2ccccc2c1)N1CC[C@H](CNC(=O)[C@@H](N)Cc2ccc(F)cc2)N[C@@H](CCCNC(=N)N)C1=O` [Compound 166, (S)-2-amino-3-(4-fluorophenyl)-N-(((3S,5R)-3-(3-guanidinopropyl)-1-((S)-1-(methylamino)-3-(naphthalen-2-yl)-1-oxopropan-2-yl)-2-oxo-1,4-diazepan-5-yl)methyl)propanamide], with below 10 µM.
Turning to `O=C(/C=C/c1ccc(Cl)cc1)NC[C@@H]1CCN(CC(c2ccccc2)c2ccccc2)C(=O)[C@H](CCN2CCCCC2)N1` [Compound 101, (E)-3-(4-chlorophenyl)-N-(((3S,5S)-1-(2,2-diphenylethyl)-2-oxo-3-(2-(piperidin-1-yl)ethyl)-1,4-diazepan-5-yl)methyl)acrylamide], the concentration for half-maximal inhibition (IC50) was below 10 µM.
The figure for `O=C(/C=C/c1ccc(Cl)cc1)NC[C@@H]1CCN(Cc2cc(Cl)cc(Cl)c2)C(=O)[C@H](CN2CCCCC2)N1` [Compound 152, (E)-3-(4-chlorophenyl)-N-(((3S,5S)-1-(3,5-dichlorobenzyl)-2-oxo-3-(piperidin-1-ylmethyl)-1,4-diazepan-5-yl)methyl)acrylamide] is below 10 µM; for “(E)-N-(((3S,5S)-3-(aminomethyl)-1-(3,5-dichlorobenzyl)-2-oxo-1,4-diazepan-5-yl)methyl)-3-(4-chlorophenyl)acrylamide [Compound 150]” it is below 10 µM; for `CNC(=O)[C@H](Cc1ccc2ccccc2c1)N1CC[C@H](CNCc2ccc(F)cc2)N[C@@H](CCCNC(=N)N)C1=O` [Compound 143, (S)-2-((3S,5R)-5-((4-fluorobenzylamino)methyl)-3-(3-guanidinopropyl)-2-oxo-1,4-diazepan-1-yl)-N-methyl-3-(naphthalen-2-yl)propanamide] it is below 10 µM.
Regarding `N=C(N)NCCC[C@@H]1N[C@H](CNC(=O)c2ccc3ccccc3c2)CCN(CCC2CC3CCC2C3)C1=O` (stereo partly drawn) [Compound 131, N-(((3S,5S)-1-(2-(bicyclo[2.2.1]heptan-2-yl)ethyl)-3-(3-guanidinopropyl)-2-oxo-1,4-diazepan-5-yl)methyl)-2-naphthamide], the IC50 is below 10 µM.
For `CN1[C@H](CNC(=O)c2ccc3cc(Br)ccc3c2)CCN(CC(c2ccccc2)c2ccccc2)C(=O)[C@@H]1CCCN` [Compound 105, N-(((3S,5S)-3-(3-aminopropyl)-1-(2,2-diphenylethyl)-4-methyl-2-oxo-1,4-diazepan-5-yl)methyl)-6-bromo-2-naphthamide], the IC50 was below 10 µM.
